Source: ChEMBL document CHEMBL2010706, “Microfluidic technology: an economical and versatile approach for the synthesis of O-(2-[18F]fluoroethyl)-L-tyrosine ([18F]FET)” (Bioorg Med Chem Lett, 2012)

Experiments:
[1] = Drug uptake in mouse EMT6 tumor xenografted in Balb/c mouse after 60 mins by PET analysis; assay type: ADME, Neoplasm; details: in vivo, 1 h
[2] = Drug uptake in mouse EMT6 tumor xenografted in Balb/c mouse assessed per mg of protein after 15 mins by PET analysis; assay type: ADME, Neoplasm; details: in vivo, 0.25 h
Muscle tissue [3] = test: Drug uptake in Balb/c mouse muscle after 10 mins by PET analysis; assay type: ADME, tissue-based; details: in vivo
[4] = Drug uptake in mouse EMT6 tumor xenografted in Balb/c mouse assessed per mg of protein after 100 mins by PET analysis; assay type: ADME, Neoplasm; details: in vivo
[5] = Drug uptake in mouse EMT6 tumor xenografted in Balb/c mouse after 30 mins by PET analysis; assay type: ADME, Neoplasm; details: in vivo, 0.5 h
Nucleic Acid = test: Ratio of drug uptake in tumor to muscle of Balb/c mouse after 60 mins […] by PET analysis; assay type: ADME, nucleic-acid assay; details: in vivo, 1 h
Muscle tissue [6] = test: Drug uptake in Balb/c mouse muscle after 30 to 60 mins by PET analysis; assay type: ADME, tissue-based; details: in vivo

## N[C@@H](Cc1ccc(OCC[18F])cc1)C(=O)O [FLORETYROSINE F18]
[1]
  SUV: 1.21
[2]
  Drug uptake: 105 %ID
Muscle tissue [3]
  Drug uptake: Active
[4]
  Drug uptake: 60 %ID
[5]
  SUV: 1.28
Nucleic Acid
  Ratio: 4.04
Muscle tissue [6]
  Drug uptake: Not Active
